According to patent US9879023B2, “Therapeutic compounds” (Gilead Sciences, Inc., priority 2011, dated 2018):
pEC50: −log10 of the molar value.

What follows are molecules tested on HIV-IIIb (MT-4 cells) (assay: Test A: Antiviral Assays in MT4 Cells). Settings: Human immunodeficiency virus 1, IIIB, MT4, 120 h, MT-4 cells infected with HIV-IIIb (0.004 m.o.i.), 5 days incubation, CellTiter-Glo readout; read-out: EC50.
Format: cell-based
Experimental: Test A: Antiviral Assays in MT4 Cells
For the antiviral assay utilizing MT-4 cells, 0.4 μL of […] test concentration of 3-fold serially diluted compound in DMSO was added to 40 μL of cell growth medium (RPMI 1640, 10% FBS, 1% penicilline/Streptomycine, 1% L-Glutamine, 1% HEPES) in each well of 384-well assay plates (10 concentrations) in quadruplicate.
1 mL aliquots of 2×10e6 MT-4 cells are pre-infected for 1 and 3 hrs respectively, @37° C. with 25 uL (MT4) or of either cell growth medium (mock-infected) or a fresh 1:250 dilution of an HIV-IIIb concentrated ABI stock (0.004 m.o.i. for MT4 cells). Infected and uninfected cells are diluted in cell growth medium and 35 uL of 2000 (for MT4) cells is added to each well of the assay plates.
Assay plates were then incubated in a 37° C. incubator. After 5 days of incubation, 25 μl of 2× concentrated CellTiter-Glo™ Reagent (catalog # G7573, Promega Biosciences, Inc., Madison, Wis.) was added to each well of the assay plate. Cell lysis was carried out by incubating at room temperature for 2-3 min and then chemiluminescence was read using the Envision reader (PerkinElmer). […]

Row | Structure (SMILES) | pEC50
1 | Cc1cc2nc(N(C)CC(=O)N(C)C)sc2c(-c2ccc3c4c(ccnc24)CCO3)c1[C@H](OC(C)(C)C)C(=O)O (atropisomer, axis not shown) [Compound 64, (S)-2-tert-butoxy-2-((R)-7-(2,3-dihydropyrano[4,3,2-de]quinolin-7-yl)-2-((2-(dimethylamino)-2-oxoethyl)(methyl)amino)-5-methylbenzo[d]thiazol-6-yl)acetic acid] | 4.28
2 | COc1nc2cc(C)c([C@H](OC(C)(C)C)C(=O)O)c(-c3ccc4c5c(ccnc35)CCO4)c2s1 (atropisomer, axis not shown) [Compound 66, (S)-2-tert-butoxy-2-((S)-7-(2,3-dihydropyrano[4,3,2-de]quinolin-7-yl)-2-methoxy-5-methylbenzo[d]thiazol-6-yl)acetic acid] | 7.65
3 | Cc1cc2c(sc(=O)n2C)c(-c2ccc3c4c(ccnc24)CCO3)c1[C@H](OC(C)(C)C)C(=O)O (atropisomer, axis not shown) [Compound 68, (S)-2-tert-butoxy-2-((S)-7-(2,3-dihydropyrano[4,3,2-de]quinolin-7-yl)-3,5-dimethyl-2-oxo-2,3-dihydrobenzo[d]thiazol-6-yl)acetic acid] | 6.53
4 | Cc1cc2nc(OC(C)C)sc2c(-c2ccc3c4c(ccnc24)CCO3)c1[C@H](OC(C)(C)C)C(=O)O (atropisomer, axis not shown) [Compound 70, (S)-2-tert-butoxy-2-((S)-7-(2,3-dihydropyrano[4,3,2-de]quinolin-7-yl)-2-isopropoxy-5-methylbenzo[d]thiazol-6-yl)acetic acid] | 7.09
5 | Cc1cc2c(sc(=O)n2Cc2ccccc2C(F)(F)F)c(-c2ccc3c4c(ccnc24)CCO3)c1[C@H](OC(C)(C)C)C(=O)O (atropisomer, axis not shown) [Compound 71, (S)-2-tert-butoxy-2-((S)-7-(2,3-dihydropyrano[4,3,2-de]quinolin-7-yl)-5-methyl-2-oxo-3-(2-(trifluoromethyl)benzyl)-2,3-dihydrobenzo[d]thiazol-6-yl)acetic acid] | 6.01
6 | Cc1cc2c(sc(=O)n2Cc2ccccc2)c(-c2ccc3c4c(ccnc24)CCO3)c1[C@H](OC(C)(C)C)C(=O)O (atropisomer, axis not shown) [Compound 72, (S)-2-((S)-3-benzyl-7-(2,3-dihydropyrano[4,3,2-de]quinolin-7-yl)-5-methyl-2-oxo-2,3-dihydrobenzo[d]thiazol-6-yl)-2-tert-butoxyacetic acid] | 7.53
7 | Cc1cc2c(sc(=O)n2Cc2cccc(C(F)(F)F)c2)c(-c2ccc3c4c(ccnc24)CCO3)c1[C@H](OC(C)(C)C)C(=O)O (atropisomer, axis not shown) [Compound 73, (S)-2-tert-butoxy-2-((S)-7-(2,3-dihydropyrano[4,3,2-de]quinolin-7-yl)-5-methyl-2-oxo-3-(3-(trifluoromethyl)benzyl)-2,3-dihydrobenzo[d]thiazol-6-yl)acetic acid] | 7.28
8 | Cc1cc2c(sc(=O)n2Cc2ccc(C(F)(F)F)cc2)c(-c2ccc3c4c(ccnc24)CCO3)c1[C@H](OC(C)(C)C)C(=O)O (atropisomer, axis not shown) [Compound 74, (S)-2-tert-butoxy-2-((S)-7-(2,3-dihydropyrano[4,3,2-de]quinolin-7-yl)-5-methyl-2-oxo-3-(4-(trifluoromethyl)benzyl)-2,3-dihydrobenzo[d]thiazol-6-yl)acetic acid] | 6.19
9 | Cc1cc2nc(C3CCC3)sc2c(-c2ccc3c4c(ccnc24)CCO3)c1[C@H](OC(C)(C)C)C(=O)O (atropisomer, axis not shown) [Compound 82, (S)-2-tert-butoxy-2-((S)-2-cyclobutyl-7-(2,3-dihydropyrano[4,3,2-de]quinolin-7-yl)-5-methylbenzo[d]thiazol-6-yl)acetic acid] | 7.40
10 | Cc1cc2nc(C(C)C)sc2c(-c2ccc3c4c(ccnc24)CCO3)c1[C@H](OC(C)(C)C)C(=O)O (atropisomer, axis not shown) [Compound 88, (S)-2-tert-butoxy-2-((S)-7-(2,3-dihydropyrano[4,3,2-de]quinolin-7-yl)-2-isopropyl-5-methylbenzo[d]thiazol-6-yl)acetic acid] | 7.88
11 | Cc1cc2nc(C(F)F)sc2c(-c2ccc3c4c(ccnc24)CCO3)c1[C@H](OC(C)(C)C)C(=O)O (atropisomer, axis not shown) [Compound 92, (S)-2-tert-butoxy-2-((S)-2-(difluoromethyl)-7-(2,3-dihydropyrano[4,3,2-de]quinolin-7-yl)-5-methylbenzo[d]thiazol-6-yl)acetic acid] | 6.45
12 | CC(=O)Nc1nc2cc(C)c([C@H](OC(C)(C)C)C(=O)O)c(-c3ccc4c5c(ccnc35)CCO4)c2s1 (atropisomer, axis not shown) [Compound 93, (S)-2-((S)-2-acetamido-7-(2,3-dihydropyrano[4,3,2-de]quinolin-7-yl)-5-methylbenzo[d]thiazol-6-yl)-2-tert-butoxyacetic acid] | 5.85
13 | Cc1cc2ncsc2c(-c2ccc3c4c(ccnc24)CCO3)c1[C@H](OC(C)(C)C)C(=O)O (atropisomer, axis not shown) [Compound 95, (S)-2-tert-butoxy-2-((S)-7-(2,3-dihydropyrano[4,3,2-de]quinolin-7-yl)-5-methylbenzo[d]thiazol-6-yl)acetic acid] | 6.18

Same assay, conditions: MT-4 cells infected with HIV-IIIb (0.004 m.o.i.), 5 days incubation, CellTiter-Glo readout; read-out: EC50

Row | Structure (SMILES) | pEC50
14 | Cc1cc2nc(N(C)CCN(C)C)sc2c(-c2ccc3c4c(ccnc24)CCO3)c1[C@H](OC(C)(C)C)C(=O)O (atropisomer, axis not shown) [Compound 61, (S)-2-tert-butoxy-2-((S)-7-(2,3-dihydropyrano[4,3,2-de]quinolin-7-yl)-2-((2-(dimethylamino)ethyl)(methyl)amino)-5-methylbenzo[d]thiazol-6-yl)acetic acid] | 6.01
15 | Cc1cc2nc(N(C)CCN(C)C)sc2c(-c2ccc3c4c(ccnc24)CCO3)c1[C@H](OC(C)(C)C)C(=O)O (atropisomer, axis not shown) [Compound 62, (S)-2-tert-butoxy-2-((R)-7-(2,3-dihydropyrano[4,3,2-de]quinolin-7-yl)-2-((2-(dimethylamino)ethyl)(methyl)amino)-5-methylbenzo[d]thiazol-6-yl)acetic acid] | 5.31
16 | Cc1cc2nc(C3=CCCC3)sc2c(-c2ccc3c4c(ccnc24)CCO3)c1[C@H](OC(C)(C)C)C(=O)O (atropisomer, axis not shown) [Compound 78, (S)-2-tert-butoxy-2-((S)-2-cyclopentenyl-7-(2,3-dihydropyrano[4,3,2-de]quinolin-7-yl)-5-methylbenzo[d]thiazol-6-yl)acetic acid] | 6.14
17 | Cc1cc2nc(C3=CCCC3)sc2c(-c2ccc3c4c(ccnc24)CCO3)c1[C@H](OC(C)(C)C)C(=O)O (atropisomer, axis not shown) [Compound 79, (S)-2-tert-butoxy-2-((R)-2-cyclopentenyl-7-(2,3-dihydropyrano[4,3,2-de]quinolin-7-yl)-5-methylbenzo[d]thiazol-6-yl)acetic acid] | 4.34
18 | Cc1cc2nc(C3CCCC3)sc2c(-c2ccc3c4c(ccnc24)CCO3)c1[C@H](OC(C)(C)C)C(=O)O (atropisomer, axis not shown) [Compound 80, (S)-2-tert-butoxy-2-((S)-2-cyclopentyl-7-(2,3-dihydropyrano[4,3,2-de]quinolin-7-yl)-5-methylbenzo[d]thiazol-6-yl)acetic acid] | 6.87
19 | Cc1cc2nc(C3CCCC3)sc2c(-c2ccc3c4c(ccnc24)CCO3)c1[C@H](OC(C)(C)C)C(=O)O (atropisomer, axis not shown) [Compound 81, (S)-2-tert-butoxy-2-((R)-2-cyclopentyl-7-(2,3-dihydropyrano[4,3,2-de]quinolin-7-yl)-5-methylbenzo[d]thiazol-6-yl)acetic acid] | 4.56
20 | Cc1cc2nc(CC(C)C)sc2c(-c2ccc3c4c(ccnc24)CCO3)c1[C@H](OC(C)(C)C)C(=O)O (atropisomer, axis not shown) [Compound 83, (S)-2-tert-butoxy-2-((S)-7-(2,3-dihydropyrano[4,3,2-de]quinolin-7-yl)-2-isobutyl-5-methylbenzo[d]thiazol-6-yl)acetic acid] | 7.03
21 | Cc1cc2nc(CC(C)C)sc2c(-c2ccc3c4c(ccnc24)CCO3)c1[C@H](OC(C)(C)C)C(=O)O (atropisomer, axis not shown) [Compound 84, (S)-2-tert-butoxy-2-((R)-7-(2,3-dihydropyrano[4,3,2-de]quinolin-7-yl)-2-isobutyl-5-methylbenzo[d]thiazol-6-yl)acetic acid] | 4.83
22 | Cc1cc2nc(C3CC3)sc2c(-c2ccc3c(c2Cl)NCCO3)c1[C@H](OC(C)(C)C)C(=O)O (atropisomer, axis not shown) [Compound 86, (S)-2-tert-butoxy-2-((S)-7-(5-chloro-3,4-dihydro-2H-benzo[b][1,4]oxazin-6-yl)-2-cyclopropyl-5-methylbenzo[d]thiazol-6-yl)acetic acid] | 7.21
23 | Cc1cc2nc(C3CC3)sc2c(-c2ccc3c(c2Cl)NCCO3)c1[C@H](OC(C)(C)C)C(=O)O (atropisomer, axis not shown) [Compound 87, (S)-2-tert-butoxy-2-((R)-7-(5-chloro-3,4-dihydro-2H-benzo[b] [1,4]oxazin-6-yl)-2-cyclopropyl-5-methylbenzo[d]thiazol-6-yl)acetic acid] | 5.80
